Test: Henry solubility constant Hcp at 298.15 K (mol/(m3 Pa))
Conditions: reference: Fendinger and Glotfelty (1990)

## Clc1ccc(-c2ccc(Cl)cc2)cc1 [4,4'-dichlorobiphenyl]
  Henry solubility constant Hcp: 0.1

## c1ccc2c(c1)ccc1ccccc12 [phenanthrene]
  Henry solubility constant Hcp: 0.42

## c1ccc2ccccc2c1 [naphthalene]
  Henry solubility constant Hcp: 0.013

## COP(=S)(OC)Oc1ccc([N+](=O)[O-])cc1 [methylparathion]
  Henry solubility constant Hcp: 160

## c1ccc(-c2ccccc2)cc1 [biphenyl]
  Henry solubility constant Hcp: 0.051

## CCOP(=S)(OCC)Oc1ccc([N+](=O)[O-])cc1 [parathion]
  Henry solubility constant Hcp: 120

## CCOC(=O)CC(SP(=S)(OC)OC)C(=O)OCC (stereo unspecified) [malathion]
  Henry solubility constant Hcp: 2000

## c1cc2c3c(cccc3c1)CC2 [acenaphthene]
  Henry solubility constant Hcp: 0.16

## Cc1ccc2ccccc2c1 [2-methylnaphthalene]
  Henry solubility constant Hcp: 0.031

## CCOP(=S)(OCC)Oc1nc(Cl)c(Cl)cc1Cl [chlorpyrifos]
  Henry solubility constant Hcp: 2.4

## C1=Cc2cccc3cccc1c23 [acenaphthylene]
  Henry solubility constant Hcp: 0.088

## c1ccc2cc3ccccc3cc2c1 [anthracene]
  Henry solubility constant Hcp: 0.51

## CCC(CC)Nc1c([N+](=O)[O-])cc(C)c(C)c1[N+](=O)[O-] [penoxaline]
  Henry solubility constant Hcp: 12

## Cc1cccc2ccccc12 [1-methylnaphthalene]
  Henry solubility constant Hcp: 0.016

## Clc1ccccc1-c1ccccc1Cl [2,2'-dichlorobiphenyl]
  Henry solubility constant Hcp: 0.04

## c1ccc2c(c1)Cc1ccccc1-2 [2,3-benzindene]
  Henry solubility constant Hcp: 0.16
